US6897316B2, “Substituted 2-phenyl-4-quinolone-3-carboxylic acid compounds and their use as antitumor agents” (China Medical University, priority 2003, dated 2005)

Experiments:
[1] = test system: panel of 39 human cancer cell lines; experiment: Growth inhibition against human cancer cell line panel (Sulforhodamine B, 48 h); assay type: cell-based
Procedure: (§1) Compound IX-8 was evaluated growth inhibition activities against a panel of 39 human cancer cell lines including Human breast cancer MDA-MB-231 and the following human cancer cell lines were generously distributed by the National Cancer Institute (Frederick, Md.): lung cancer, NCI-H23, NCI-H226, NCI-H522, NCI-H460, A-549, DMS273 and DMS114; colon cancer, HGC-2998, KM-12, HT-29, HCT-15, and HCT-116; ovarian cancer, OVCAR-3, OVCAR-4, OVCAR-5, OVCAR-8, and SKOV-3; breast cancer, MCF-7; renal cancer, RXF-631L and ACHN; melanoma, LOX-IMVI; brain tumor, U251, SF-295, SF-539, SF-268, SNB-75, and SNB-78, and prostate cancer, DU-145 and PC-3. […]
(§2) The details of measuring cell growth inhibition are described elsewhere [Monks, A., Scudiero, D., Skehan, P., Shoemaker, R., Paull, K., Vistica, D., Hose, C., Langley, J., Cronise, P., Vaigro-Wolff, A., Gray-Goodrich, M., Campbell, H., Mayo, J., Boyd, M. Feasibility of a high-flux anticancer drug screen using a diverse panel of cultured human tumor cell lines. […] Then, the cell growth was determined according to the Sulforhodamine B assay, described by Skehan et al [Skehan, P., Storeng, R., Scudiero, D., Monks, A., McMahon, J., Vistica, D., Warren, J. T., Bokesch, H., Kenney, S., Boyd, M. R. New calorimetric cytotoxicity assay for anticancer-drug screening. […]

HGC2998 (colon cancer) = experiment: Growth inhibition in human cancer cell line panel, HGC2998; assay type: cell-based; settings: 48 hr, SRB
Procedure: as §1, §2

- MG-MID (mean growth midpoint) of log GI50 ([1]; mean over cell line panel, 10^−4 to 10^−8 M): −6.22 M
- GI50 (HGC2998 (colon cancer)): 138 nM
Structure (SMILES): COc1ccc2[nH]c(-c3cccc(F)c3)c(C(=O)O)c(=O)c2c1 [IX-8, 3′-Fluoro-6-methoxy-2-phenyl-4-quinolone-3-carboxylic acid]
- activity against cancer cell line panel in words ([1]; cell line panel): active against most cancer cell lines
